Our source for the TGI and GI50 values is PubChem BioAssay (NCI).

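The compound was tested at five concentrations on cells cultured in 96-well plates, with a 48-hour exposure period. At the GI50, growth is halved. The concentration for full growth arrest is given as TGI.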

Common to all, as to assay: NCI tumour cell line growth inhibition, 48 h
For assay [1], the system named is HCT-116 colon.
The test system of assay [2] is K-562 leukemia.
In assay [3] the test system is KM12 colon.
Assay [4] concerns LOX IMVI melanoma.
For assay [5], the system named is MOLT-4 leukemia.
Assay [6] relates to NCI-H522 lung.
The test system of assay [7] is OVCAR-4 ovarian.
In assay [8] the test system is SF-295 CNS.
Assay [9] concerns HS 578T breast.
Assay [10] relates to BT-549 breast.

As for `O=C(NNC(=O)/C(=C/c1cccc([N+](=O)[O-])c1)NC(=O)c1ccccc1)Nc1ccc(Cl)cc1`, the TGI came out at 26.2 µM in assay [1]; 36.1 µM in assay [2]; 24.7 µM in [3]; 30.2 µM in [4]; 25.2 µM in assay [5]; 25.7 µM in assay [6]. For the same compound, the figures for the TGI in assay [7] and in assay [8] were 26.9 µM and 34.3 µM, respectively.

In the case of `Cc1cc(NCCCCCCCCNc2cc(C)nc3cc(N(C)C)ccc23)c2ccc(N(C)C)cc2n1`, the TGI was 14 µM in [1]; 28.5 µM in assay [2]; 19.6 µM in [3]; 8.99 µM in assay [4]; more than 100 µM in assay [5]; 12.9 µM in [6]. Also, the TGI is 21.6 µM in assay [7] and 30.2 µM in assay [8].

In the case of `O=S1(=O)CC#CC[C@@H](CO)[C@@H](CO)CC#CC1`, the TGI in assay [1] was more than 100 µM; in assay [2] it was more than 100 µM; in assay [3], more than 100 µM; in assay [4] it was more than 100 µM; in assay [5], more than 100 µM; in assay [6], 32.6 µM. Also, the TGI in assay [7] and in assay [8] was more than 100 µM throughout.

With `CCCCCCCCCCCCCC(=O)OCC1OC(=O)C(O)C1O` (stereo not drawn), the TGI in assay [1], in assay [2], in [3], in assay [4], in assay [5] and in [6] was more than 100 µM each time. The TGI in assay [7] and in assay [8] was more than 100 µM throughout.

On to `COC(=O)/C(=C1\OC(=O)C(c2ccc(Cl)cc2)=C1O)c1ccc(Cl)cc1`, for which the TGI in [1] amounted to 50.4 µM; in assay [2] it was 86.9 µM; in assay [3] it was 67.8 µM; in assay [4], 64.4 µM; in [5], 65.5 µM; in assay [6], 50.4 µM. In addition, the TGI in assay [7] is more than 100 µM; in [8] it was 43 µM.

Regarding `O=S1c2ccccc2N=C(c2cccs2)CC1c1ccccc1O` (stereo not drawn), the TGI in assay [2], in assay [3], in assay [4], in assay [5], in assay [6] and in assay [7] was more than 100 µM in each case. Also, the TGI in [8] was more than 100 µM.

On to `Cc1ccccc1N=C(c1ccccc1)C1C(=O)c2ccccc2C1=O`, for which the GI50 in [1] is 2.34 µM; in assay [9] it was 18.3 µM; in assay [2] it was 25.6 µM; in assay [3], 10.7 µM; in assay [4], 21.7 µM; in assay [5], 9.98 µM. Besides, the results for the GI50 in [6], in [7] and in assay [8] were 1.99 µM, 20.4 µM and 13.8 µM, respectively. Besides, the TGI in assay [1] was 16.2 µM; in assay [9] it was 95.3 µM; in [2], more than 100 µM; in assay [3], 30.8 µM; in assay [4] it was 71.6 µM; in [5] it was 35.7 µM. Moreover, the TGI was 17.7 µM in assay [6], more than 100 µM in assay [7] and 36.5 µM in assay [8].

Regarding `Clc1cc2ns[s+]c2cc1Cl`, the TGI was more than 100 µM in assay [1]; more than 100 µM in assay [2]; more than 100 µM in assay [3]; more than 100 µM in assay [4]; more than 100 µM in [5]; more than 80.5 µM in assay [6]. In addition, the TGI in assay [7] and in assay [8] was more than 100 µM in each case.

For `O=c1[nH]c(C2CCCCC2)nc2ccc(Cl)cc12`, the TGI in [1], in assay [2], in assay [3], in assay [5] and in [8] was more than 100 µM in each case.

In the case of `CCn1c(C)nc([N+](=O)[O-])c1Sc1ncc[nH]1`, the TGI in assay [1] is more than 100 µM; in assay [2], more than 100 µM; in assay [3], more than 100 µM; in [4], 42.2 µM; in assay [5] it was 76.8 µM; in assay [6] it was 38.1 µM. In addition, the TGI in [7] and in [8] was more than 100 µM in each case.

Consider `Cc1cc(C2CC(O)C(CO)O2)c(Br)cc1Br` (stereo not drawn), for which the GI50 in assay [10] is more than 100 µM; in assay [1], more than 100 µM; in assay [9] it was 49.9 µM; in [2], more than 100 µM; in assay [3], more than 100 µM; in assay [4], 80.2 µM. Further, the GI50 in assay [6] and in assay [8] was more than 100 µM in each case. For the same compound, the TGI in assay [10], in [1], in assay [9], in assay [2], in assay [3] and in assay [4] was more than 100 µM in each case. Moreover, the TGI in assay [6] and in assay [8] was more than 100 µM throughout.

On to `COc1ccc(NC(=O)CC2SC(=Nc3ccc(Cl)cc3C)NC2=O)c([N+](=O)[O-])c1` (stereo not drawn), for which the TGI in assay [1], in [2], in assay [4], in assay [5], in assay [6] and in assay [7] was more than 100 µM throughout. For the same compound, the TGI in assay [8] is more than 100 µM.

For `Cc1ccccc1C1SCc2nc3ccccc3n21` (stereo not drawn), the TGI in assay [1], in assay [2], in assay [3], in assay [6] and in assay [8] was more than 100 µM in each case.

`c1ccc2cc(Cn3c(-c4cccc5ccccc45)[n+](Cc4ccc5ccccc5c4)c4c5ccccc5c5ccccc5c43)ccc2c1`: the GI50 in assay [1] was 0.176 µM; in assay [9], 0.383 µM; in assay [2] it was 0.224 µM; in assay [3] it was 0.285 µM; in [5], 0.385 µM; in assay [7], 0.324 µM. Further, in [8], the GI50 is 0.203 µM. The TGI in [1] was 1.5 µM; in assay [9], 2.45 µM; in assay [2], more than 100 µM; in [3], 1.2 µM; in assay [5], 2.09 µM; in assay [7], 1.41 µM. This compound displayed a TGI in assay [8] of 1.05 µM.
